A value given as a limit tells only on which side of the number the result lay.

The subject of series [1] is isolated rat aorta. The series can be described thus: Vasodilating effect on blood vessel excised from rats (methoxamine-constricted aorta). Particulars: isolated rat aorta constricted with methoxamine (3 μM); read-out: Concentration for inhibition of constriction induced by methoxamine in rat arota (IC50). In short, it runs like this:
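Endothelium-denuded rat thoracic aortic rings (3 mm) in Krebs-Henseleit buffer, 37 °C, carbogen, 2 g resting tension, primed twice with 10^−5 M phenylephrine. After maximal contraction with 3×10^−6 M methoxamine, compounds added cumulatively at 1, 3, 10, 30 μM. IC50 = concentration giving 50% relaxation of maximal constriction, by linear regression.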

Series [2] concerns cortical neuron cells. The series can be described thus: Protective effect on iron-induced neuronal cell injury (LDH release). As to conditions: FeSO4 50 μM; for IC50: LDH. The class given is cell-based. In short, it runs like this: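 Embryonic (day 17–18) cortical neurons cultured 7–9 days, serum lowered to 0.2%, pretreated 30 min with compound (DMSO ≤0.1%), then exposed to 50 μM FeSO4 for 24 h. LDH released to medium measured; protection expressed as LDH reduction versus vehicle control.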
On the technique in general: LDH in the medium is a marker of cell lysis.

Series [3] relates to retina ganglion cell. Kind of series: Protective effect on neuronal cells damage by axotomy of optic nerve. Format: in vivo, rat. As to conditions: 20 μM, injected vitreously, after axotomy of optic nerve. As to the method: Test compounds were dissolved in DMSO to prepare stock solution (100 mM), which was diluted with physiological saline to the 20 μM. 10 μl of […] was injected vitreously.
Adult rats were anesthetized with chloral hydrate (400 mg/Kg), then optic nerve was exposed by bulbar conjunctiva. Thereafter, nerve corresponding to 0.5 mm or 3 mm from eye ball was excided, respectively. Or through upper eyelid cutaneous amputation was accomplished, then part of lacrimal gland was removed. […] The optic nerve was excised about 5 mm back from eye ball. Blood vessels of retina supplying blood to retina was not impaired. Condition of blood vessels of retina was checked with funduscope. Fluorogold (Fluorochrome Inc. 5% in PBS (phosphate buffered solution) was administrated to Half of test group, in the retrograde after axotomy of optic nerve. To investigate cell survival of the ganglion after axotomy, eyes was removed from rats, then retina was isolated in 3 days, 1 week, 2 weeks, 4 weeks, 2 months, 4 months, and 6 months. The isolated retina was investigated by transmission electron microscope. For quantitative analysis, at the same time tissue of retina was prepared. The prepared tissue was investigated by immunochemical dyeing or fluorescent microscope to which 530˜560 nm filter was installed.

In series [4] the test system is RAW 264.7 cells. Kind of series: Inhibitory effect on NO production (LPS, Griess reagent). Format: cell-based, murine. As to conditions: Mus musculus, RAW264.7, 24 h, Addition 30 μM, LPS 1 μg/ml, read-out: Inihibition (%) of NO production. Here is the method: Using RPMI1640 media supplemented with 10% fetal bovine serum (FBS), RAW 264.7 cells (obtained from American Type Culture Collection), a murine macrophage cell line, were cultured at 37° C. in a 5% CO2 incubator. The RAW 264.7 cells were harvested and cell density was adjusted to 5×10^5 cell/ml with a RPMI media supplemented with 0.5% FBS and plated at 5×10^4 cell/well to 96-well plate, which were then cultured for 20 hours in a CO2 incubator. After removal of the media, the cells were pre-treated for 1 hour with fresh media containing 30 μM. The test compounds were dissolved in DMSO and diluted to respective concentration in the media. In order to minimize DMSO effect on the nitric oxide formation by the RAW 264.7 cells in the walls, the media were allowed to contain DMSO at a concentration of 0.1% or less.
After completion of one-hour pre-treatment, Lipopolysaccharide (E. coli serotype 055:B5) was added to activate the cells at a final concentration of 1 μg/ml, which were maintained for 24 hours in a CO2 incubator. As a result of the activation of RAW 264.7 cells with LPS, NO was formed. The NO release into the media was in a form of nitrite (NO2^−) and quantitatively measured using the Griess reagent. A control group was treated only with vehicle instead of test compounds.
The inhibitory effect of the test compounds against NO production were determined as the reduction of NO quantity compared with that of the control group.
(The Griess reaction detects nitrite, a stable product of nitric oxide.)

Series [5] in a line: Acute oral toxicity test in rats. Particulars: SD, rat, in vivo, single oral dose, suspended in 0.5% methyl cellulose, read-out: lethal dose (LD50) for oral administration. The essentials:
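Six-week-old SPF SD rats, two per group, received compounds orally as suspensions in 0.5% methyl cellulose. Endpoints were clinical signs, body weight, mortality, haematology, serum biochemistry and macroscopic necropsy of organs and tissues.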

For the compound `COC(OC)[C@@]1(C)Oc2ccc(N)cc2[C@H](N(Cc2nnn(C)n2)c2ccc(Cl)cc2)[C@H]1O` [Example 11, (2S,3R,4S)-6-amino-4-[N-(4-chlorophenyl)-N-(2-methyl-2H-tetrazol-5-ylmethyl)amino]-3-hydroxy-2-methyl-2-dimethoxymethyl-3,4-dihydro-2H-1-benzopyran], the IC50 in series [1] was greater than 30 µM; in series [2] (Cortical neurone, 24 h) it was less than 2000 nM; in series [2] (24 hours), 2000 nM. The “protective effect on neuron cell: Inhibition (%, 30 μM compound addition)” value in series [2] (30 μM compound, 24 hours, LDH reduction vs control) is listed as 93%. The “Survival of the ganglion cell(%)” value in series [3] and in series [3] (listed as compound of formula 11) was 43% in each case. The inhibition at 30 µM in series [4] stood at 27%. Besides, the LD50 in series [5] is greater than 2000 mg/kg.

The values above are taken from patent publication US7414068B2, “Benzopyran derivatives substituted with secondary amines including tetrazole, method for the preparation thereof and pharmaceutical compositions containing them” (Dongbu Hannong Chemical Co., Ltd., priority 2002, dated 2008).
